Experimental data as given in BindingDB's records for doi:10.1074/jbc.M113.503474 (The Ohio State University, 2013).
Where “and” joins values, the source holds several entries; their conditions need not be identical. Identical values can stand only once.

Target: Isoform Tau-F of Microtubule-associated protein tau (Human, UniProt P10636)
Experiment: Tau Protein Assay
Conditions: pH 7.4
Experimental: The Tau content of fractions was determined by dot blot analysis using nitrocellulose membranes (0.2 μm porosity) as described previously [Cisek et al., Biophys. Chem., 170:25-33]. The membranes were blocked in 5% nonfat dry milk dissolved in blocking buffer (100 mM Tris-HCl, pH 7.4, and 150 mM NaCl) for 1 h and then incubated with primary antibody Tau5 at 1:5000 dilution for 2 h. Membranes were then washed three times with blocking buffer and incubated with horseradish peroxidase-linked secondary antibody for 2 h. After washing another three times with blocking buffer, membranes were imaged using the Enhanced Chemiluminescence Western blotting Analysis System (GE Healthcare, Buckinghamshire, UK) recorded on an Omega 12iC Molecular Imaging System and quantified using Ultra-Quant software (UltraLum, Claremont, CA, USA).

Isoform Tau-F of Microtubule-associated protein tau, sequence (P10636 as listed by the source): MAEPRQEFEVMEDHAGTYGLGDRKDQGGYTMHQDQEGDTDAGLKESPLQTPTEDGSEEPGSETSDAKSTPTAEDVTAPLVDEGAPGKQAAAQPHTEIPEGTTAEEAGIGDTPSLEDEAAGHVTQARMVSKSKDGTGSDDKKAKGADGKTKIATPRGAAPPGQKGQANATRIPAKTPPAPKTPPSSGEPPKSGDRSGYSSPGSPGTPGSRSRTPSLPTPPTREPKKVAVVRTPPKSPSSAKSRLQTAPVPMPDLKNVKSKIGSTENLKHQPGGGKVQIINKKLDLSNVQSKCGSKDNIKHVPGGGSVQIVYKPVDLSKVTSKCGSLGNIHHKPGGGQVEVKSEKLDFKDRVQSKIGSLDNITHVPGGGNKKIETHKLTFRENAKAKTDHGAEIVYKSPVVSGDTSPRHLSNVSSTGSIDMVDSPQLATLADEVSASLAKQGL

`O=C(O)CCN1C(=O)/C(=C/c2ccc(-c3ccccc3Cl)o2)SC1=S` [Rhodanines, 31A] and `O=C(O)CCN1C(=O)/C(=C/c2ccc(-c3cccc(Cl)c3)o2)SC1=S` [Rhodanines, 28A] are within 1.5-fold of each other in IC50: 650 nM for the first, 470 nM for the second.

`O=C1/C(=C/c2cccc(-c3ccc(-c4ccccc4)cc3)c2)SC(=S)N1CCc1c[nH]cn1` [Rhodanines, 57B] and `O=C1/C(=C/c2ccc(-c3ccc(-c4ccccc4)cc3)cc2)SC(=S)N1CCc1c[nH]cn1` [Rhodanines, 58B] are within 1.5-fold of each other in IC50: 9380 nM for the first, 12400 nM for the second.

Compared with `C1=C2\Sc3ccccc3N2CCCC[n+]2c(sc3ccccc32)/C=C/C=C2\Sc3ccccc3N2CCCC[n+]2c(sc3ccccc32)/C=C/1` [Cyanines, 9], `O=C1/C(=C/c2ccc(-c3ccc(-c4ccccc4)cc3)o2)SC(=S)N1Cc1nc2ccccc2[nH]1` [Rhodanines, 41A] is 12-fold higher in IC50: 120 nM for the first, 1400 nM for the second.

Going from `O=C(O)Cc1ccc(CN2C(=O)/C(=C/c3ccc(-c4ccc(-c5ccccc5)cc4)o3)SC2=S)cc1` [Rhodanines, 33A] to `O=C(O)Cc1ccc(CN2C(=O)/C(=C/c3ccc(-c4ccc(-c5ccccc5)cc4)cc3)SC2=S)cc1` [Rhodanines, 59B], the IC50 rises from 730 nM to 14800 nM (20-fold). The first is the more potent here.

`O=C(O)CN1C(=O)/C(=C/c2ccc(-c3cccc(Cl)c3)o2)SC1=S` [Rhodanines, 36A] and `O=C(O)CCCN1C(=O)/C(=C/c2ccc(-c3cccc(Cl)c3)o2)SC1=S` [Rhodanines, 40A] are within 1.5-fold of each other in IC50: 820 nM for the first, 1220 nM for the second.

`O=C1/C(=C/c2ccc(-c3cccc(Cl)c3)o2)SC(=S)N1Cc1nc2ccccc2[nH]1` [Rhodanines, 32A] and `O=C1/C(=C/c2ccc(-c3ccc(-n4cccc4)cc3)o2)SC(=S)N1Cc1nc2ccccc2[nH]1` [Rhodanines, 29A] are within 1.5-fold of each other in IC50: 670 nM for the first, 540 nM for the second.

`CCC(/C=C1\Sc2ccc(OC)cc2N1CCO)=C\c1sc2ccc(OC)cc2[n+]1CCO` and `CCN1/C(=C/C(C)=C/c2sc3ccccc3[n+]2CC)Sc2ccccc21` [SMR000354813] are within 1.5-fold of each other in IC50: 290 nM for the first, 280 nM for the second.

Compared with `O=C1/C(=C/c2ccc(-c3ccc(-c4ccccc4)cc3)o2)SC(=S)N1CCc1c[nH]cn1` [Rhodanines, 54A], `O=C1/C(=C/c2cccc(-c3ccc(-c4ccccc4)cc3)n2)SC(=S)N1CCc1c[nH]cn1` [Rhodanines, 63B] is 15-fold higher in IC50: 7700 nM for the first, 117000 nM for the second.

Going from `O=C(O)CN1C(=O)/C(=C/c2ccc(-c3cccc(Cl)c3)o2)NC1=S` [Rhodanines, 53A] to `O=C(O)CN1C(=O)/C(=C/c2ccc(-c3cccc(Cl)c3)o2)OC1=S` [Rhodanines, 46A], the IC50 falls from 6100 nM to 3100 nM (2-fold). The second is the more potent here.

Going from `O=C1/C(=C/c2ccc(-c3ccc(-n4cccc4)cc3)o2)SC(=S)N1CCc1c[nH]cn1` [Rhodanines, 43A] to `O=C(O)CCN1C(=O)/C(=C/c2ccc(-c3ccc(-n4cccc4)cc3)o2)SC1=S` [Rhodanines, 24A], the IC50 falls from 1850 nM to 240 nM (7.7-fold).

`C/N=c1\ccc2nc3ccc(N)cc3sc-2c1` [Azure C (13)] and `N=c1ccc2nc3ccc(N)cc3sc-2c1` cannot be ordered by IC50: > 10000 nM for the first, > 10000 nM for the second.

`CN(C)c1ccc(C(=C2C=CC(=[N+](C)C)C=C2)c2ccccc2)cc1` [Malachite green (16)] and `CN(C)c1ccc(C(=C2C=CC(=[N+](C)C)C=C2)c2ccc(N(C)C)cc2)cc1` [CHEBI:77181] are within 1.5-fold of each other in IC50: 520 nM for the first, 490 nM for the second.

Compared with `CNc1ccc2nc3ccc(=[N+](C)C)cc-3sc2c1` [Azure B (11)], `C[N+](C)=c1ccc2nc3ccc(N)cc3sc-2c1` [AZURE A] is higher in IC50: 1280 nM for the first, > 10000 nM for the second. The first is the more potent here.

`O=C(O)CCCCN1C(=O)/C(=C/c2cccc(-c3ccc(-c4ccccc4)cc3)n2)SC1=S` [Rhodanines, 52B] and `O=C(O)CCCN1C(=O)/C(=C/c2cccc(-c3ccc(-c4ccccc4)cc3)n2)SC1=S` [Rhodanines, 51B] are the same in IC50: 5030 nM for the first, 5030 nM for the second.

Compared with `CCCN1/C(=C/C=C/C2=[N+](CCC)c3ccccc3C2(C)C)C(C)(C)c2ccccc21` [Cyanines, 6], `O=C(O)CCCCN1C(=O)/C(=C/c2ccc(-c3ccc(-c4ccccc4)cc3)o2)SC1=S` [Rhodanines, 25A] is 11-fold lower in IC50: 2570 nM for the first, 240 nM for the second. The second is the more potent here.

Compared with `O=C(O)CCN1C(=O)/C(=C/c2ccc(-c3ccc(-c4ccccc4)cc3)o2)SC1=S` [Rhodanines, 20A], `O=C(O)CCCN1C(=O)/C(=C/c2ccc(-c3ccc(-c4ccccc4)cc3)o2)SC1=S` [Rhodanines, 37A] is 5.5-fold higher in IC50: 170 nM for the first, 940 nM for the second. The first is the more potent here.

First: O=C(O)CCN1C(=O)/C(=C/c2ccc(-c3ccc(-c4ccc(C(=O)O)o4)cc3)o2)SC1=S [Rhodanines, 21A]
Second: O=C(O)CCCCN1C(=O)/C(=C/c2ccc(-c3ccc(-c4ccc(C(=O)O)o4)cc3)o2)SC1=S [Rhodanines, 26A]
The IC50 of the first is 1.5-fold lower: 170 nM for the first, 260 nM for the second. The first is the more potent here.

Going from `O=C(O)Cc1ccc(CN2C(=O)/C(=C/c3cccc(-c4ccc(-c5ccccc5)cc4)c3)SC2=S)cc1` [Rhodanines, 64B] to `O=C(O)Cc1ccc(CN2C(=O)/C(=C/c3cccc(-c4ccc(-c5ccccc5)cc4)n3)SC2=S)cc1` [Rhodanines, 62B], the IC50 falls from 146000 nM to 35500 nM (4.1-fold). The second is the more potent here.

Compared with `O=C(O)CCN1C(=O)C(=CC2CCC(c3ccc(-c4ccccc4)cc3)C2)SC1=S` (stereo unspecified) [Rhodanines, 55A], `O=C(O)CCN1C(=O)/C(=C/c2ccc(-c3ccc(-c4ccccc4)cc3)cc2)SC1=S` [Rhodanines, 60B] is 2.5-fold higher in IC50: 7920 nM for the first, 19600 nM for the second.

`O=C(O)c1ccc(-c2ccc(-c3ccc(/C=C4\SC(=S)N(CCc5c[nH]cn5)C4=O)o3)cc2)o1` [Rhodanines, 34A] and `O=C(O)Cc1ccc(CN2C(=O)/C(=C/c3ccc(-c4ccc(-c5ccc(C(=O)O)o5)cc4)o3)SC2=S)cc1` [Rhodanines, 30A] are within 1.5-fold of each other in IC50: 750 nM for the first, 580 nM for the second.

Compared with `O=C1/C(=C/c2ccc(-c3cccc(Cl)c3)o2)SC(=S)N1CCc1c[nH]cn1` [Rhodanines, 39A], `O=C(O)Cc1ccc(CN2C(=O)/C(=C/c3ccc(-c4cccc(Cl)c4)o3)SC2=S)cc1` [Rhodanines, 44A] is 1.8-fold higher in IC50: 1090 nM for the first, 1970 nM for the second.

Going from `O=C(O)Cc1ccc(CN2C(=O)/C(=C/c3ccc(-c4ccc(-n5cccc5)cc4)o3)SC2=S)cc1` [Rhodanines, 35A] to `O=C(O)CCCN1C(=O)/C(=C/c2ccc(-c3ccc(-n4cccc4)cc3)o2)SC1=S` [Rhodanines, 23A], the IC50 falls from 780 nM to 230 nM (3.4-fold). The second is the more potent here.

Going from `O=C(O)CC(C(=O)O)N1C(=O)/C(=C/c2ccc(-c3cccc(Cl)c3)o2)SC1=S` (stereo unspecified) [Rhodanines, 27A] to `O=C(O)CCN1C(=O)/C(=C/c2ccc(-c3cccc(Cl)c3)s2)SC1=S` [Rhodanines, 38A], the IC50 rises from 420 nM to 970 nM (2.3-fold). The first is the more potent here.

`O=C1C=CC(=C(c2ccc(O)cc2)c2ccc(O)cc2)C=C1` [Corallin] and `N=C1C=CC(=C(c2ccc(N)cc2)c2ccc(N)cc2)C=C1` [Fuschin (17)] cannot be ordered by IC50: > 10000 nM for the first, > 10000 nM for the second.

Compared with `O=C(O)CCCCN1C(=O)/C(=C/c2ccc(-c3ccc(-n4cccc4)cc3)o2)SC1=S` [Rhodanines, 22A], `CN(C)c1ccc(N=C2C=CC(=[N+](C)C)C=C2)cc1` [Bindschedler's green (19)] is 5.2-fold higher in IC50: 210 nM for the first, 1090 nM for the second.

For `CC(C(=O)O)N1C(=O)/C(=C/c2ccc(-c3cccc(Cl)c3)o2)SC1=S` (stereo unspecified) [Rhodanines, 42A], the IC50 was 1410 nM and 4360 nM.
